In ChEMBL document CHEMBL1862790, “Optimisation of fenarimol series for the treatment of Chagas disease”:

Key:
[1] = DNDI: Cytotoxicity against L-6 rat myoblasts from skeletal muscle cells
Trypanosoma cruzi [2] = experiment: microbe, parasite or virus in culture; assay type: functional, organism-based, Tulahuen LacZ, Clone C4; settings: Trypanosoma cruzi, Tulahuen LacZ, Clone C4
Trypanosoma cruzi [3] = experiment: microbe, parasite or virus in culture; assay type: functional, Tulahuen LacZ, Clone C4; settings: Trypanosoma cruzi, Tulahuen LacZ, Clone C4
[4] = L6 rat skeletal muscle myoblast cells, IC50
[5] = L6 rat skeletal muscle myoblast cells

Row | Compound | IC50 [1, 4] [nM] | IC50 (Trypanosoma cruzi [2]) [nM] | IC90 (Trypanosoma cruzi [3]) [nM] | IC50 ([1]; l6, IC50) [nM] | IC50 [1, 5] [nM]
1 | Cn1cc(C(=O)NC2CCN(C(c3ccc(C(F)(F)F)cc3)c3cccnc3)CC2)c(C(F)(F)F)n1 (configuration not stated) | 53400 | 16 | 36.5 | – | –
2 | O=S(=O)(c1ccc(C(F)(F)F)cc1)N1CCN(C(c2ccc(Cl)cc2)c2cncnc2)CC1 (configuration not stated) | 57000 | 290 | > 1000 | – | –
3 | CC1CS(=O)(=O)CCN1/N=C/c1ccc([N+](=O)[O-])o1 (configuration not stated) [NIFURTIMOX] | – | 230 | 820 | > 100000 | –
4 | CC(C)S(=O)(=O)NC1CCN(C(c2ccc(C(F)(F)F)cc2)c2cnccn2)CC1 (configuration not stated) | > 100000 | 560 | 940 | – | –
5 | CC(C)C(=O)NC1CCN(C(c2ccc(C(F)(F)F)cc2)c2cnccn2)CC1 (configuration not stated) | > 100000 | 560 | 940 | – | –
6 | O=C(c1cc[nH]n1)N1CCC(NC(c2ccc(C(F)(F)F)cc2)c2cccnc2)CC1 (configuration not stated) | > 100000 | 294 | 570 | – | –
7 | Fc1cc(Cl)ccc1C(NC1CCN(c2nc3ccccc3s2)CC1)c1cccnc1 (configuration not stated) | > 100000 | 265 | 570 | – | –
8 | Cc1ccc(C(O)(c2cccnc2)c2ccccc2Cl)cc1 (configuration not stated) | – | 70 | 160 | – | > 100000
9 | OC(c1ccc(Cl)cc1)(c1ccc(C(F)(F)F)cc1)c1nnc[nH]1 (configuration not stated) | > 100000 | 7420 | > 10000 | – | –
10 | FC(F)(F)c1ccc(C(NC2CCN(c3ncccn3)CC2)c2cncs2)cc1 (configuration not stated) | 76700 | 20 | 64 | – | –
11 | Clc1ccc(C(=NN2CCCCC2)c2cccnc2)cc1 | 56800 | 381 | 630 | – | –
12 | CC(C)Oc1ncc(C(O)(c2ccc(Cl)cc2)c2cccnc2)cn1 (configuration not stated) | > 100000 | 60 | 230 | – | –
13 | OC(c1ccc(Cl)cc1)(c1cnccn1)c1ccccc1Cl (configuration not stated) | > 100000 | 440 | 7900 | – | –
14 | CS(=O)(=O)N1CCC(C(O)(c2ccc(Cl)cc2)c2cccnc2)CC1 (configuration not stated) | > 100000 | 200 | 550 | – | –
15 | CC(C)(C)OC(=O)N1CCN(C(c2ccc(Cl)cc2)c2cncnc2)CC1 (configuration not stated) | > 100000 | 130 | 280 | – | –
16 | CC(C)Oc1ccc(C(c2cccnc2)N2CCC(NC(=O)C3CC3)CC2)cc1 (configuration not stated) | > 100000 | 380 | 860 | – | –
17 | Cc1ncoc1C(=O)NC1CCN(C(c2ccc(C(F)(F)F)cc2)c2cccnc2)CC1 (configuration not stated) | 84700 | 29 | 120 | – | –
18 | CC(C)(C)OC(=O)NC1CCN(C(c2cnccn2)c2ccc(F)cc2F)CC1 (configuration not stated) | > 100000 | 260 | 650 | – | –
19 | CC(C)Oc1ccc(C(c2cccnc2)N2CCC(NC(=O)c3ccccc3)CC2)cc1 (configuration not stated) | > 100000 | 61 | 180 | – | –
20 | O=C(C1CC1)N1CCC(NC(c2ccc(C(F)(F)F)cc2)c2cnccn2)CC1 (configuration not stated) | > 100000 | 470 | 850 | – | –
21 | N#Cc1ccc(C(c2cccnc2)N2CCC(NC(=O)c3ccno3)CC2)cc1 (configuration not stated) | > 100000 | 220 | 671 | – | –
22 | CC1=C(C(=O)Nc2ccccc2)S(=O)(=O)CCO1 [OXYCARBOXIN] | – | 65100 | > 100000 | – | > 100000
23 | O=C(C1CCCCC1)N1CCC(NC(c2cnccn2)c2ccc(F)cc2F)CC1 (configuration not stated) | > 100000 | 570 | 990 | – | –
24 | CC(C)c1ccc(NC(=O)N2CCC(NC(c3ccc(Cl)cc3)c3cccnc3)CC2)cc1 (configuration not stated) | 19700 | 5 | 15 | – | –
25 | CN(C)C(=O)NC1CCN(C(c2ccc(C(F)(F)F)cc2)c2cnccn2)CC1 (configuration not stated) | > 100000 | 250 | > 1000 | – | –
26 | N#Cc1ccc(C(c2cccnc2)N2CCC(NC(=O)c3ccc(C(F)(F)F)cc3F)CC2)cc1 (configuration not stated) | 76800 | 345 | 696 | – | –
27 | O=C(c1ccc(F)c(C(O)(c2ccc(Cl)cc2)c2cccnc2)c1)N1CCOCC1 (configuration not stated) | > 100000 | 48 | 190 | – | –

Row | Compound | IC50 [1, 4] [nM] | IC50 (Trypanosoma cruzi [2]) [nM] | IC90 (Trypanosoma cruzi [3]) [nM] | IC50 ([1]; l6, IC50) [nM] | IC50 [1, 5] [nM]
28 | CC(O)C(C)N1CCC(NC(c2ccc(Cl)cc2)c2cccnc2)CC1 (configuration not stated) | > 100000 | 1810 | 3160 | – | –
29 | CN(CC1CCCCC1)C(c1ccc(C(F)(F)F)cc1)c1cnccn1 (configuration not stated) | 55600 | 480 | 820 | – | –
30 | CC(C)Oc1ccc(C(c2cccnc2)N(C(=O)C2CC2)C2CCN(C(=O)C3CC3)CC2)cc1 (configuration not stated) | > 100000 | > 1000 | > 1000 | – | –
31 | OC(c1ccc(Cl)cc1)(c1ccc(Cl)cc1)c1cccc(F)c1 | 53200 | 560 | 840 | – | –
32 | OC(c1ccc(F)cc1)(c1cncnc1)c1ccccc1Cl (configuration not stated) [NUARIMOL] | – | 1140 | 19500 | – | > 100000
33 | CN(C)C(=O)N1CCC(NC(c2ccc(Cl)cc2)c2cccnc2)CC1 (configuration not stated) | > 100000 | 170 | 340 | – | –
34 | CCS(=O)(=O)NC1CCN(C(c2ccc(C(F)(F)F)cc2)c2cnccn2)CC1 (configuration not stated) | > 100000 | 1140 | 6470 | – | –
35 | FC(F)(F)c1ccc(C(NC2CCN(c3ccccc3C(F)(F)F)CC2)c2cccnc2)cc1 (configuration not stated) | 45800 | 9 | 31.5 | – | –
36 | O=C(Nc1ccccc1)NC1CCN(C(c2cncnc2)c2ccc(Cl)cc2F)CC1 (configuration not stated) | 56000 | 30 | 190 | – | –
37 | Cc1cc(C(=O)N2CCC(NC(c3ccc(C(F)(F)F)cc3)c3cccnc3)CC2)n(C(C)(C)C)n1 (configuration not stated) | 71700 | 47.5 | 150 | – | –
38 | O=S(=O)(c1ccc(Cl)cc1)N1CCN(C(c2ccc(Cl)cc2)c2cncnc2)CC1 (configuration not stated) | 29000 | 130 | 460 | – | –
39 | CON=C(c1ccc(C(F)(F)F)cc1)c1cccnc1 | 70300 | > 1000 | > 1000 | – | –
40 | O=S(=O)(NC1CCN(C(c2ccc(C(F)(F)F)cc2)c2cnccn2)CC1)c1ccc(Cl)cc1 (configuration not stated) | 18900 | 700 | > 1000 | – | –
41 | Fc1cc(Cl)cc(N2CCC(NC(c3cccnc3)c3ccc(Cl)cc3F)CC2)c1 (configuration not stated) | 53100 | 19 | 50 | – | –
42 | CCN(CC)C(=O)NC1CCN(C(c2ccc(Cl)cc2)c2cccnc2)CC1 (configuration not stated) | > 100000 | 120 | 730 | – | –
43 | O=C(NC(c1ccc(C(F)(F)F)cc1)c1cnccn1)c1ccc(C(F)(F)F)cc1 (configuration not stated) | 61200 | 590 | > 1000 | – | –
44 | FC(F)(F)c1ccc(C(NC2CN(c3ncccn3)C2)c2cccnc2)cc1 (configuration not stated) | > 100000 | 115 | 756 | – | –
45 | O=C(NC1CCCCC1)NC1CCN(C(c2ccc(Cl)cc2)c2cccnc2)CC1 (configuration not stated) | 84300 | 26 | 110 | – | –
46 | CC(=O)NC1CCN(C(c2ccc(C(F)(F)F)cc2)c2cnccn2)CC1 (configuration not stated) | > 100000 | 1440 | 3170 | – | –
47 | Clc1ccc(C(c2cncnc2)N2CCNCC2)cc1 (configuration not stated) | > 100000 | > 1000 | > 1000 | – | –
48 | CS(=O)(=O)N1CCN(C(c2ccc(Cl)cc2)c2cccnc2)CC1 (configuration not stated) | > 100000 | 110 | 216 | – | –
49 | NC(=O)c1ccc(C(O)(c2ccc(Cl)cc2)c2cccnc2)c(F)c1 (configuration not stated) | > 100000 | 660 | 790 | – | –
50 | CN(C)C(=O)N1CCC(NC(c2cnccn2)c2ccc(F)cc2F)CC1 (configuration not stated) | > 100000 | > 1000 | > 1000 | – | –
51 | Cc1noc(C)c1C(=O)N1CCC(NC(c2ccc(C(F)(F)F)cc2)c2cncs2)CC1 (configuration not stated) | > 100000 | 140 | 516 | – | –
52 | CCCCC(O)(c1ccc(OC(C)C)cc1)c1cccnc1 (configuration not stated) | 55900 | 17 | 36 | – | –
53 | O=C(Cc1ccccc1)N1CCC(NC(c2ccc(C(F)(F)F)cc2)c2cnccn2)CC1 (configuration not stated) | 70500 | 540 | 950 | – | –
54 | OC(c1ccc(Cl)cc1)(c1cccnc1)c1cccc(F)c1F (configuration not stated) | – | 107 | 256 | – | > 100000
